The text below walks through data of ChEMBL document CHEMBL1136865, “Effects of detergents on the West Nile virus protease activity” (Bioorg Med Chem, 2009).

Calls of active or inactive are those of the source. The calls are words filed in the database; no cut-off is given here.

Test [1] deals with West Nile virus. Put plainly: Increase in West Nile virus NS3 protease activity at =>0.01 to 0.1 % by spectrofluorimetry using Boc-Gly-Lys-Arg-AMC substrate relative to control.
The subject of test [2] is West Nile virus. Description: Increase in West Nile virus NS3 protease activity up to 0.5% by spectrofluorimetry using Boc-Gly-Lys-Arg-AMC substrate relative to control.

As for `C[C@H](CCC(=O)NCCC[N+](C)(C)CCCS(=O)(=O)[O-])[C@H]1CC[C@H]2[C@@H]3[C@H](O)C[C@@H]4C[C@H](O)CC[C@]4(C)[C@H]3C[C@H](O)[C@]12C`, the result in the test with West Nile virus [1] and in the test with West Nile virus [2] was inactive.
